Columns and labels:
Assay in all cases: relative viability (nuclei count vs DMSO), 5 days (fraction); higher = more cells survive
GW-2580 + Palbociclib = compound: COC1=CC=C(C=C1)COC2=C(C=C(C=C2)CC3=CN=C(N=C3N)N)OC [GW-2580] + CC(=O)c1c(C)c2cnc(Nc3ccc(N4CCNCC4)cn3)nc2n(C2CCCC2)c1=O [Palbociclib] (partner 0.5 µM)
Method in brief: (§1)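 Five library-drug doses in √10 steps were combined with a fixed anchor-drug dose, or a single drug was given alone, by pin tool to lung cancer cell lines in 1536-well plates the day after seeding. Nuclei were stained and counted after 5 days. Relative viability is the nuclei count in treated wells over that in vehicle wells, taken as the median of duplicate plates.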

GW-2580 + Dasatinib = compound: COC1=CC=C(C=C1)COC2=C(C=C(C=C2)CC3=CN=C(N=C3N)N)OC [GW-2580] + Cc1nc(Nc2ncc(C(=O)Nc3c(C)cccc3Cl)s2)cc(N2CCN(CCO)CC2)n1 [Dasatinib] (partner 0.075 µM)
Method in brief: as §1

Fedratinib + Palbociclib = compound: Cc1cnc(Nc2ccc(OCCN3CCCC3)cc2)nc1Nc1cccc(S(=O)(=O)NC(C)(C)C)c1 [Fedratinib] + CC(=O)c1c(C)c2cnc(Nc3ccc(N4CCNCC4)cn3)nc2n(C2CCCC2)c1=O [Palbociclib] (partner 0.5 µM)
Method in brief: as §1

Fedratinib + Foretinib = compound: Cc1cnc(Nc2ccc(OCCN3CCCC3)cc2)nc1Nc1cccc(S(=O)(=O)NC(C)(C)C)c1 [Fedratinib] + COc1cc2c(Oc3ccc(NC(=O)C4(C(=O)Nc5ccc(F)cc5)CC4)cc3F)ccnc2cc1OCCCN1CCOCC1 [Foretinib] (partner 0.25 µM)
Method in brief: as §1

Fedratinib + Pictilisib = compound: Cc1cnc(Nc2ccc(OCCN3CCCC3)cc2)nc1Nc1cccc(S(=O)(=O)NC(C)(C)C)c1 [Fedratinib] + CS(=O)(=O)N1CCN(Cc2cc3nc(-c4cccc5[nH]ncc45)nc(N4CCOCC4)c3s2)CC1 [Pictilisib] (partner 1 µM)
Method in brief: as §1

Row | Cell Line | relative viability (GW-2580 + Palbociclib; first compound 0.08 µM) | relative viability (GW-2580 + Palbociclib; first compound 0.8 µM) | relative viability (GW-2580 + Palbociclib; first compound 2.53 µM) | relative viability (GW-2580 + Palbociclib; first compound 8 µM) | relative viability (GW-2580 + Dasatinib; first compound 0.08 µM) | relative viability (GW-2580 + Dasatinib; first compound 0.8 µM) | relative viability (GW-2580 + Dasatinib; first compound 2.53 µM) | relative viability (GW-2580 + Dasatinib; first compound 8 µM) | relative viability (Fedratinib + Palbociclib; first compound 0.1 µM) | relative viability (Fedratinib + Palbociclib; first compound 0.3162 µM) | relative viability (Fedratinib + Palbociclib; first compound 1 µM) | relative viability (Fedratinib + Foretinib; first compound 0.1 µM) | relative viability (Fedratinib + Foretinib; first compound 0.3162 µM) | relative viability (Fedratinib + Foretinib; first compound 1 µM) | relative viability (Fedratinib + Pictilisib; first compound 0.1 µM) | relative viability (Fedratinib + Pictilisib; first compound 0.3162 µM) | relative viability (Fedratinib + Pictilisib; first compound 1 µM)
1 | ABC-1 | 0.74 | 0.768 | 0.503 | 0.696 | 0.559 | 0.675 | 0.55 | 0.534 | 0.691 | 0.704 | 0.609 | 1.03 | 1.22 | 0.96 | 0.694 | 0.809 | 0.318
2 | NCI-H522 | 1.04 | 1.06 | 0.825 | 1.04 | 0.95 | 0.787 | 0.795 | 1.02 | 0.847 | 0.893 | 1.03 | – | – | – | – | – | –
3 | NCI-H838 | 0.228 | 0.25 | 0.2 | 0.251 | 0.295 | 0.344 | 0.241 | 0.316 | 0.197 | 0.228 | 0.164 | 1.05 | 1.06 | 0.989 | 0.449 | 0.47 | 0.213
4 | SW 900 | 0.593 | 0.562 | 0.593 | 0.567 | 0.787 | 0.505 | 0.802 | 0.585 | 0.547 | 0.514 | 0.47 | 0.868 | 1.05 | 0.804 | – | – | –
5 | A549 | – | – | – | – | – | – | – | – | – | – | – | 0.896 | 0.938 | 0.892 | 0.531 | 0.465 | 0.434
6 | A-427 | 0.521 | 0.534 | 0.52 | 0.529 | 0.758 | 0.794 | 0.511 | 0.735 | 0.505 | 0.492 | 0.487 | 1.04 | 1 | 1.05 | 0.639 | 0.758 | 0.329
7 | NCI-H1792 | 0.96 | 0.997 | – | 0.678 | 1.48 | 0.82 | – | 1.01 | 0.684 | 0.622 | 0.611 | – | – | – | 0.257 | 0.289 | 0.227
8 | LCLC-97TM1 | 0.214 | 0.308 | 0.199 | 0.221 | 0.891 | 0.866 | 0.899 | 0.821 | 0.215 | 0.235 | 0.183 | 1.03 | 0.913 | 0.935 | 0.196 | 0.169 | 0.15
9 | NCI-H1703 | – | – | – | – | – | – | – | – | – | – | – | 0.317 | 0.296 | 0.324 | 0.244 | 0.233 | 0.204
10 | LCLC-103H | 0.51 | 0.48 | 0.459 | 0.493 | 0.451 | 0.496 | 0.511 | 0.484 | 0.479 | 0.502 | 0.477 | 0.644 | 0.797 | 0.608 | 0.536 | 0.678 | 0.512
11 | PC-3 [JPC-3] | 0.546 | 0.567 | 0.515 | 0.516 | 0.986 | 1.14 | 0.845 | 1.03 | 0.481 | 0.523 | 0.542 | 0.982 | 1.08 | 1.06 | 0.694 | 0.836 | 0.56

Reference: the supplement of paper PMC10307832
